Assay results from US5861480A, “Antimicrobial proteins from aralia and impatiens” (Zeneca Limited, priority 1994, dated 1999).

Experiments:
Format in all cases: cell-based
[1] = test system: A longipes (Alternaria lonaives CBS62083); assay: Antifungal activity assay (microspectrophotometry), A longipes; conditions: 48 h
[2] = test system: Botrytis cinerea MUCL 30158; assay: Antifungal activity assay (microspectrophotometry), B cinerea; conditions: 48 h
[3] = test system: C sphaerospermum (Cladosnorium sphaerospermum KO791); assay: Antifungal activity assay (microspectrophotometry), C sphaerospermum; conditions: 48 h
[4] = test system: Fusarium culmorum IMI 180420; assay: Antifungal activity assay (microspectrophotometry), F culmorum; conditions: 48 h
[5] = test system: P digitatum (Penicillium dipitatum (K0879)); assay: Antifungal activity assay (microspectrophotometry), P digitatum; conditions: 48 h
[6] = test system: Septoria tritici (K1097D); assay: Antifungal activity assay (microspectrophotometry), S tritici; conditions: 48 h
[7] = test system: Trichoderma viride K1127; assay: Antifungal activity assay (microspectrophotometry), T viride; conditions: 48 h
[8] = test system: Verticillium albo-atrum K0937; assay: Antifungal activity assay (microspectrophotometry), V albo-atrum; conditions: 48 h
[9] = test system: plant pathogenic fungi; assay: Antifungal potency on different plant pathogenic fungi (summary over the panel); conditions: high salt medium (medium B)
[10] = test system: Cercospora beticola strain K897; assay: Antifungal activity assay (microspectrophotometry), C beticola; conditions: Medium A (1/2 PDB), 48 h
[11] = test system: B maydis (Bipolaris mavdis HM-10); assay: Antifungal activity assay (microspectrophotometry), B maydis; conditions: Medium A (1/2 PDB), 48 h
[12] = test system: C graminicola (Colletotrichum Qraminicola CG-17); assay: Antifungal activity assay (microspectrophotometry), C graminicola; conditions: Medium A (1/2 PDB), 48 h
[13] = test system: F graminearum (Fusarium craminearum FR-12); conditions: Medium A (1/2 PDB), 48 h
[14] = test system: Fusarium moniliforme FM-9; assay: Antifungal activity assay (microspectrophotometry), F moniliforme; conditions: Medium A (1/2 PDB), 48 h
[15] = test system: Stenocarpella maydis; assay: Antifungal activity assay (microspectrophotometry), S maydis; conditions: Medium A (1/2 PDB), 48 h
[16] = test system: Sphacelotheca reiliana HS; assay: Antifungal activity assay (microspectrophotometry), S reiliana; conditions: Medium A (1/2 PDB), 48 h
[17] = test system: Verticillium dahliae MUCL 19210; assay: Antifungal activity assay (microspectrophotometry), V dahliae; conditions: Medium A (1/2 PDB), 48 h
[18] = test system: Bacillus megaterium ATCC 13632; assay: Antibacterial activity assay (microspectrophotometry), B megaterium; conditions: bacterial suspension in soft nutrient agarose, 24 hours at 28° C.
[19] = test system: Escherichia coli strain HB101; assay: Antibacterial activity assay (microspectrophotometry), E coli; conditions: bacterial suspension in soft nutrient agarose, 24 hours at 28° C.
[20] = test system: Saccharomyces cerevisiae JRY188; assay: Anti-yeast activity assay, S cerevisiae
[21] = test system: Candida albicans KA-1; assay: Anti-yeast activity assay, C albicans
[22] = Medium B (1/2 PDB + 1 mM CaCl2 and 50 mM KCl)

Row | Substance | IC50 (growth inhibition) A longipes ([1]; Medium A (1/2 PDB)) | IC50 (growth inhibition) A longipes [1, 22] | IC50 (growth inhibition) B cinerea ([2]; Medium A (1/2 PDB)) | IC50 (growth inhibition) B cinerea [2, 22] | IC50 (growth inhibition) C sphaerospermum ([3]; Medium A (1/2 PDB)) | IC50 (growth inhibition) C sphaerospermum [3, 22] | IC50 (growth inhibition) F culmorum ([4]; Medium A (1/2 PDB)) | IC50 (growth inhibition) F culmorum [4, 22] | IC50 (growth inhibition) P digitatum ([5]; Medium A (1/2 PDB)) | IC50 (growth inhibition) P digitatum [5, 22] | IC50 (growth inhibition) S tritici ([6]; Medium A (1/2 PDB)) | IC50 (growth inhibition) S tritici [6, 22] | IC50 (growth inhibition) T viride ([7]; Medium A (1/2 PDB)) | IC50 (growth inhibition) T viride [7, 22] | IC50 (growth inhibition) V albo-atrum ([8]; Medium A (1/2 PDB)) | IC50 (growth inhibition) V albo-atrum [8, 22] | IC50 (growth inhibition) C beticola [10] | further results
1 | Ib-AMP4: Impatiens balsamina antimicrobial protein 4, purified from I balsamina seeds; amino acid sequence SEQ ID NO 13 (QWGRRCCGWGPGRRYCRRWC) | 3 µg/mL | 12 µg/mL | 6 µg/mL | 200 µg/mL | 1 µg/mL | 6 µg/mL | 1 µg/mL | 6 µg/mL | 3 µg/mL | 25 µg/mL | 1 µg/mL | 12 µg/mL | 6 µg/mL | 150 µg/mL | 6 µg/mL | 50 µg/mL | – | antifungal activity in high salt medium (in words) [9]: fairly strong activity
2 | Ib-AMP3: Impatiens balsamina antimicrobial protein 3, purified from I balsamina seeds; amino acid sequence SEQ ID NO 12 (QYRHRCCAWGPGRKYCKRWC) | 6 µg/mL | > 200 µg/mL | 6 µg/mL | > 200 µg/mL | 3 µg/mL | 100 µg/mL | 6 µg/mL | 100 µg/mL | 3 µg/mL | 100 µg/mL | – | – | 12 µg/mL | > 200 µg/mL | 6 µg/mL | > 200 µg/mL | – | –
3 | Ib-AMP2: Impatiens balsamina antimicrobial protein 2, purified from I balsamina seeds; amino acid sequence SEQ ID NO 11 (QYGRRCCNWGPGRRYCKRWC) | 12 µg/mL | > 200 µg/mL | 25 µg/mL | > 200 µg/mL | 6 µg/mL | > 200 µg/mL | 6 µg/mL | > 200 µg/mL | 6 µg/mL | > 200 µg/mL | – | – | 12 µg/mL | > 200 µg/mL | 12 µg/mL | > 200 µg/mL | 3 µg/mL | –
4 | Ib-AMP1: Impatiens balsamina antimicrobial protein 1, purified from I balsamina seeds; amino acid sequence SEQ ID NO 10 (QWGRRCCGWGPGRRYCVRWC) | 3 µg/mL | 50 µg/mL | 12 µg/mL | > 200 µg/mL | 1.5 µg/mL | 50 µg/mL | 1.5 µg/mL | 50 µg/mL | 3 µg/mL | 200 µg/mL | 1 µg/mL | 50 µg/mL | 6 µg/mL | > 200 µg/mL | 3 µg/mL | > 200 µg/mL | 1.5 µg/mL | IC50 (growth inhibition) B maydis [11]: 7 µg/mL; IC50 (growth inhibition) C graminicola [12]: 2 µg/mL; IC50 (growth inhibition) F graminearum [13]: 3 µg/mL; IC50 (growth inhibition) F moniliforme [14]: 20 µg/mL; IC50 (growth inhibition) S maydis [15]: 5 µg/mL; IC50 (growth inhibition) S reiliana [16]: 4 µg/mL; IC50 (growth inhibition) V dahliae [17]: 1 µg/mL; IC50 (growth inhibition) B megaterium [18]: 10 µg/mL; IC50 (growth inhibition) E coli [19]: > 800 µg/mL; IC50 (growth inhibition) S cerevisiae [20]: 20 µg/mL; IC50 (growth inhibition) C albicans [21]: 10 µg/mL; effect on the growth of C. albicans (in words) [21]: strongly inhibitied
